Reference: PubChem BioAssay AID1996
Converted amounts (≈) assume the structure as drawn.

Details: buffer; pH 7.4; 200.0 µM
Work on `Cn1cnc([N+](=O)[O-])c1Sc1nc2ccccc2[nH]1` yielded a solubility kinetic of 5.1 µg/mL (≈ 18.5 µM).
Compound `CC(C)CCNC(=O)c1ccc(-n2cnc3cccnc32)cc1` has a solubility kinetic of over 46.3 µg/mL.
In the case of `CCCCCC1CCC(C(=O)NCCN2CCOCC2)CC1` (stereo not given), the solubility kinetic is reported as 35.6 µg/mL (≈ 115 µM).
`O=C(CCNC(=O)c1ccccc1Cl)Nc1ccccc1N1CCCC1` gave a solubility kinetic of 48.6 µg/mL (≈ 131 µM).
For `CC1(C)CC(=O)C=C(Nc2cccc(F)c2)C1`, the solubility kinetic was over 35 µg/mL.
In the case of `O=C(Nc1ccccc1N1CCCCC1)c1cccc([N+](=O)[O-])c1`, the solubility kinetic is reported as 0.7 µg/mL (≈ 2.15 µM).
`O=c1[nH]c(=S)n(C2CC2)c(O)c1C=NCCc1ccccc1` gave a solubility kinetic of under 0.2 µg/mL.
`O=C(NC(=S)NCc1ccccc1)c1cccc([N+](=O)[O-])c1` showed a solubility kinetic of 2.2 µg/mL (≈ 6.98 µM).
In the case of `Fc1ccc(-c2noc(-c3ccc4c(c3)CCO4)n2)cc1`, the solubility kinetic is reported as under 0.3 µg/mL.
`COc1ccccc1NS(=O)(=O)c1ccc(C)c(C(=O)N2CCN(c3ccc(O)cc3)CC2)c1.Cl` gave a solubility kinetic of over 77.7 µg/mL.
Work on `Cc1cc(-c2ccccc2C(=O)Nc2ccccc2O)on1` yielded a solubility kinetic of over 44.1 µg/mL.
With `Cc1nc2ccccc2c2c1CC(C)S2` (stereo not given) the solubility kinetic was 24.5 µg/mL (≈ 114 µM).
With `O=C(O)CCCNc1ccc(S(=O)(=O)N2CCCCC2)cc1` the solubility kinetic was over 49 µg/mL.
With `Cc1ccc(NC(=O)c2cc3c(=O)oc4ccc(C)cc4c3s2)nc1` the solubility kinetic was under 0.4 µg/mL.
For `O=C(Nc1ccc2[nH]c(=O)[nH]c2c1)C(F)(F)F`, the solubility kinetic was 23.9 µg/mL (≈ 97.5 µM).
Compound `O=C(COC(=O)CC1CC2CCC1C2)Nc1ccc(F)cc1Cl` (stereo not given) has a solubility kinetic of 13.2 µg/mL (≈ 38.8 µM).
`O=C(Cn1c(C(=O)O)cc2ccccc21)c1ccccc1` showed a solubility kinetic of 39.2 µg/mL (≈ 140 µM).
With `CCCNC(=O)CNC(=S)N(Cc1ccccc1F)C1CCCCC1` the solubility kinetic was 42.3 µg/mL (≈ 116 µM).
With `Cc1nc(NC(=O)CSc2nc(N)cc(N)n2)sc1C` the solubility kinetic was over 46.6 µg/mL.
In the case of `COc1ccc(CNC(=O)c2cc(SC)ccc2Cl)cc1OC`, the solubility kinetic is reported as 49.1 µg/mL (≈ 140 µM).
Work on `CC(=O)C(Cc1ccccc1)NC(=O)CN1CCc2ccccc2C1` (stereo not given) yielded a solubility kinetic of over 50.5 µg/mL.
Work on `CCn1cc(CN(C)S(=O)(=O)c2cccc([N+](=O)[O-])c2)cn1` yielded a solubility kinetic of over 48.7 µg/mL.
Work on `CC(C)CCC(C)NC(=O)c1ccc2nccnc2c1` (stereo not given) yielded a solubility kinetic of 34.6 µg/mL (≈ 128 µM).
For `C#CCN1c2ccccc2Sc2cccnc21`, the solubility kinetic was 4.8 µg/mL (≈ 20.1 µM).
`CN(C)c1nc(OCc2ccccc2)c2ncc(=O)[nH]c2n1` gave a solubility kinetic of 1.2 µg/mL (≈ 4.04 µM).
Compound `CC1CCN(S(=O)(=O)c2cccc3cccnc23)CC1` has a solubility kinetic of 41.8 µg/mL (≈ 144 µM).
With `Cn1cnnc1SCC(=O)Nc1ccc(OC(F)F)cc1` the solubility kinetic was over 47.1 µg/mL.
Compound `CC(C)CC(=O)Nc1ccc([N+](=O)[O-])cc1Cl` has a solubility kinetic of 9.8 µg/mL (≈ 38.2 µM).
Work on `CCOc1ccc(OCCC(=O)OCC(=O)NC2CC2)cc1` yielded a solubility kinetic of over 46.1 µg/mL.
Compound `Cc1ccc(NC(=O)COC(=O)CC2CCCC2)cc1F` has a solubility kinetic of 29.5 µg/mL (≈ 101 µM).
In the case of `O=[N+]([O-])c1ccc(N2CCN(c3ccccc3O)CC2)cc1`, the solubility kinetic is reported as 0.5 µg/mL (≈ 1.67 µM).
With `CCN1CCN(C(=O)CSc2nc(N)cc(N)n2)CC1` the solubility kinetic was over 44.5 µg/mL.
With `CCOP(=O)(OCC)C(NC(=O)CC(C)C)C(Cl)(Cl)Cl` (stereo not given) the solubility kinetic was over 55.3 µg/mL.
`O=C(NCCNC(=O)c1ccco1)c1ccc(F)cc1` gave a solubility kinetic of over 41.4 µg/mL.
`CC1CN(S(=O)(=O)c2cc(C(=O)NC(C)c3cccnc3)ccc2Cl)CC(C)O1` (stereo not given) gave a solubility kinetic of over 65.7 µg/mL.
For `COC(=O)c1cccc(NC(=O)CC2C(=O)NCCN2C(=O)Nc2cc(C)cc(C)c2)c1` (stereo not given), the solubility kinetic was 13.1 µg/mL (≈ 29.9 µM).
Compound `CC(=O)Nc1sc(-c2ccc(Cl)cc2)nc1-c1ccccc1` has a solubility kinetic of under 0.4 µg/mL.
Compound `O=C(Nc1c(F)cccc1F)C(c1ccccc1)c1ccccc1` has a solubility kinetic of under 0.7 µg/mL.
In the case of `CCC1CCc2sc(C(=O)NCc3ccccn3)cc2C1` (stereo not given), the solubility kinetic is reported as 36.8 µg/mL (≈ 122 µM).
`CCCn1cnc2scc(-c3ccc(OC)cc3)c2c1=O` gave a solubility kinetic of 13.9 µg/mL (≈ 46.3 µM).
For `CCCC1Cc2nc(Cl)c(C#N)cc2CO1` (stereo not given), the solubility kinetic was over 35.5 µg/mL.
With `Cc1ccc(Cl)cc1NC(=O)C1COc2ccccc2O1` (stereo not given) the solubility kinetic was under 0.7 µg/mL.
Compound `CC(CN1CCOCC1)OC(=O)c1ccccc1.Cl` (stereo not given) has a solubility kinetic of over 42.9 µg/mL.
For `S=C(NC1CC1)NC1CCCc2ccccc21` (stereo not given), the solubility kinetic was over 37 µg/mL.
In the case of `Cn1c(SCC#N)nc2ccccc2c1=O`, the solubility kinetic is reported as 30.2 µg/mL (≈ 131 µM).
In the case of `Nc1ccc(N2CCCC2)c(S(=O)(=O)Nc2cccc(C(F)(F)F)c2)c1`, the solubility kinetic is reported as 25.8 µg/mL (≈ 66.9 µM).
In the case of `CCOC(=O)c1nc2c(ccc3ccccc32)cc1C`, the solubility kinetic is reported as under 0.6 µg/mL.
With `O=C(c1ccc(Cl)nc1)N1CCN(C/C=C/c2ccccc2)CC1` the solubility kinetic was over 51.3 µg/mL.
For `CC(C)C(NC(=O)C1CC(=O)N(Cc2ccccc2)C1)c1nc2ccccc2[nH]1` (stereo not given), the solubility kinetic was over 58.6 µg/mL.
Work on `Cc1cccc(C)c1NC(=O)N1CCC(C(=O)c2ccc(F)cc2)CC1` yielded a solubility kinetic of 15.4 µg/mL (≈ 43.5 µM).
For `COc1ccc2nc(C)cc(Nc3ccc(N4CCN(C)CC4)cc3)c2c1`, the solubility kinetic was over 54.4 µg/mL.
Compound `O=S(=O)(c1cnccc1N1CCN(CCO)CC1)N1CCCCC1` has a solubility kinetic of over 53.2 µg/mL.
For `COc1cc(C(=O)OCC(=O)N2CCCCCC2)c([N+](=O)[O-])cc1OC`, the solubility kinetic was over 55 µg/mL.
In the case of `Cc1ccc(CSCC(=O)NCc2ccc3c(c2)OCO3)cc1`, the solubility kinetic is reported as 11.5 µg/mL (≈ 34.9 µM).
With `Cc1ccccc1NC(=S)N1CCN(c2ccccc2Cl)CC1` the solubility kinetic was 17.5 µg/mL (≈ 50.6 µM).
Work on `COc1ccc2[nH]c(=O)c(CNc3ccc(C)cc3C)cc2c1` yielded a solubility kinetic of 41.5 µg/mL (≈ 135 µM).
Compound `Cc1ccc[n+](Cc2ccc([N+](=O)[O-])cc2)c1.[Br-]` has a solubility kinetic of over 46.4 µg/mL.
In the case of `COC(=O)c1ccc(CNC(=O)COC(=O)/C=C/c2cc(OC)c(OC)c(OC)c2)cc1`, the solubility kinetic is reported as 4.6 µg/mL (≈ 10.4 µM).
Work on `CCCC(=O)N(Cc1cc(=O)[nH]c2ccccc12)c1ccccc1C` yielded a solubility kinetic of 41.1 µg/mL (≈ 123 µM).
For `CCOC(=O)c1cnc2c(ccc3ccccc32)c1NCCCN(C)C`, the solubility kinetic was 46.1 µg/mL (≈ 131 µM).
